Experimental data: patent publication US7413903B2, “Methods of regulating differentiation in stem cells” (ES Cell International PTE Ltd., priority 2002, dated 2008)

Legend:
hES cells [1] = test: GCTM-2 quantification (alkaline phosphatase-coupled secondary antibody, OD 405 nm); assay type: cell-based, human; conditions: for effect of inhibitor on the effect of PDGF and S1P on GCTM2 expression: 7 days, U0126, DMS 3 μM; for more GCMT2+ than the control cells / GCTM2 levels, PDGF isoform added with S1P: Example 1; for more GCMT2+ than the control cells: on MEF, 8 days, S1P 10 μM; for more GCMT2+ than the control cells / more GCMT2+ than the controls: serum-free; for more GCMT2+ than the controls: treated for 2 weeks
Excerpt: hES-3 cells plated with MEF, were fixed in ethanol and immunostained with GCTM-2 and then with an alkaline phosphatase-coupled secondary antibody (Dako). The activity of alkaline phosphatase was detected by adding a solution of 4-nitrophenyl phosphate (Roche, Mannheim, Germany), followed by reading the optical density (OD) at 405 nm. In order to validate the technique as a relevant indicator of the proportion of GCTM-2 positive cells, standard curves were done with the teratocarcinoma cell line GCT27C4, known to express GCTM-2.
Cells were fixed in 100% ethanol and immunostained with GCTM-2 followed by alkaline phosphatase-coupled secondary antibodies (Dako). Alkaline phosphatase activity was detected by adding a solution of 4-nitrophenyl phosphate (Roche), and the concentration of the reaction product was determined by reading the optical density (OD) at 405 nm. In order to validate the technique as an accurate indicator of the proportion of GCTM-2 positive cells, standard curves were carried out with the embryonal carcinoma cell line GCT27C4, known to express GCTM-2 ^20.

ERK1/2 (Erk1 and Erk2) = test: ERKs phosphorylation in hES cells (Western blot, anti-active MAP kinase); assay type: cell-based, human; conditions: for phosphorylation of ERKs in hES cells: 5 min incubation, LPA, PDGF 20 ng/ml, serum-depleted, without MEF
Protocol: hES-3 cells plated without MEF for 24 hrs were depleted of serum for a further 18 hrs. Cells pre-treated or not with U0126 (Sigma, 30 μM, 1 hr), were incubated in the presence of the different agents for 5 min and were lysed by removal of the supernatants and addition of a reducing loading buffer containing 1 mM sodium orthovanadate (Sigma). Protein lysates (approx. 80 μg) were separated by SDS-polyacrylamide gel electrophoresis (10% polyacrylamide, w/v), transferred to nitrocellulose (Hybond-nitrocellulose, Amersham) and immunoblotting was carried out using rabbit polyclonal anti-active mitogen-activated protein (MAPK) antibodies raised against a dually phosphorylated MAPK peptide (Promega, Madison, Wis., USA). Peroxidase-coupled secondary antibody (Dako) was detected by exposure of autoradiographic films in the presence of a chemiluminescent detection reagent (ECL, Amersham). Stripping of antibodies was achieved and membranes were then reprobed with rabbit polyclonal anti-ERK1/2 antibodies (Promega), and then with peroxidase-coupled secondary antibodies (Dako). Membranes probed with either rabbit polyclonal anti-active p38 (Promega) or rabbit polyclonal anti-active JNK (Promega) antibodies were also performed, using the same procedure as described
For immunoblot analysis, cells were transferred into 24 well plates (8 colonies per well) without MEFs, and 24 hr later, were grown in the absence of serum for 18 hrs.
In some experiments, cells were pre-treated for 1 hr with U0126 (30 μM) or for 18 hrs with PTX (100 μg/ml).
hES3 cells were lysed following removal of the supernatants by addition of a reducing loading buffer (2% SDS, 62.5 mM Tris pH 6.8, 0.1 M DTT, 0.01% bromophenol blue) containing 1 mM sodium orthovanadate. Samples were boiled for 10 min and centrifuged at 13000 g for 15 min, and protein lysates (approx. 80 μg) were separated by SDS-polyacrylamide gel electrophoresis (10% polyacrylamide, w/v). Proteins were transferred to nitrocellulose (Hybond-ECL, Amersham) and immunoblotting was carried out with rabbit polyclonal anti-active mitogen-activated protein (MAPK) antibodies raised against a dually phosphorylated MAPK peptide (Promega, Madison, Wis., USA). Peroxidase-coupled secondary antibody (Dako) was detected by exposure of autoradiographic films in the presence of a chemiluminescent detection reagent (ECL, Amersham). Stripping of antibodies was achieved by incubating the membrane during 30 min at 50° C. in a buffer containing 100 mM mercaptoethanol, 2% SDS, 62.5 mM Tris-HCl pH 6.7. The membrane was then reprobing with rabbit polyclonal anti-ERK1/2 antibodies (Promega), and then with peroxidase-coupled secondary antibodies (Dako).

hES cells [2] = test: GCTM-2 / PCNA double immunostaining and cell counting of mechanically dissociated hES cells; assay type: cell-based, human; conditions: for percentage of cells GCTM2+: mechanically dissociated, PDGF 10 ng/ml
Protocol: In some experiments, hES-3 cells plated onto 8-well chamber slides, with or without MEF, were fixed in ethanol or paraformaldehyde (for PDGFR) the day after plating. In others, hES-3 cells were mechanically dissociated, in order to obtain a monolayer culture and then plated onto 8-well chamber slides without MEF and were fixed in ethanol 4 days after the first treatment. Immunostaining was performed using the following antibodies: anti human PDGFR-α or PDGFR-β(R&D Systems Inc.), GCTM-2, and/or PCNA (Chemicon, Boronia, VIC, Australia), TRA-1-60, Oct-4. Nuclei were evidenced by Hoechst-33342. Slides were mounted and observed by fluorescent microscopy with a Leica microscope at X10, X20 and X40. Specificity was verified by the absence of any staining in the negative controls. In some experiments, cells were counted to determine the ratio of cells within the global population.
For immunostaining, hES-3 cells were coated on chamber slides after mechanical dissociation, in order to obtain a monolayer culture. The day following the plating, cells were incubated with the different agents in a media depleted in serum. Media was changed the 2nd day and the cells were fixed 4 days after the first treatment.
Cells were washed in PBS, fixed with MeOH, and immunostaining was performed, using the specific stem cell marker antibody GCTM-2, and the specific cell proliferation marker PCNA. Cells were then washed and the nucleuses were stained with Hoechst-33342 (1 μg/ml). Slides were mounted and then observed by fluorescent microscopy. Cells were then counted in order to determine the ratio of proliferating stem cells within the overall population.

hES cells [3] = test: Direct observation of hES cell colonies in serum-free medium (spontaneous differentiation); assay type: cell-based, human; conditions: for colony morphology / spontaneous differentiation vs control: Example 1, PDGF 20 ng/ml; for colony morphology / spontaneous differentiation vs control / colony size, morphology / spontaneous differentiation vs controls: on MEF, serum-free; for colony morphology / spontaneous differentiation vs control / colony size, morphology / spontaneous differentiation vs controls / colony growth / differentiation vs control: LPA up to 50 μM; for colony size, morphology / spontaneous differentiation vs controls: Example 2, 2 weeks, PDGF-AB 20 ng/ml; for colony growth / differentiation vs control: 12 days
Protocol: (§1) hES-3 cells were cultured as previously described^1. The serum-free culture medium consisted of DMEM (without sodium pyruvate, glucose 4500 mg/l, Invitrogen, Mount Waverley, VIC, Australia) supplemented with insulin/transferrin/selenium 1%, β-mercaptoethanol 0.1 mM, NEAA 1%, glutamine 2 mM, Hepes 25 mM, penicillin 50 U/ml and streptomycin […] (all from Invitrogen). Medium was changed every 2 days and cells were passaged every week. S1P and dihydro-S1P were obtained from Biomol (Plymouth Meeting, Pa., USA) and were dissolved in methanol. LPA was obtained from Sigma (Castle Hill, NSW, Australia) and was dissolved in ethanol. Extemporaneous dilutions of all lipids were made in water containing 0.1% fatty acid-free bovine serum albumin (BSA) (Sigma). Human PDGF-AB, PDGF-AA, PDGF-BB were from PreproTech Inc. (Rocky Hill, N.J., USA). RT-PCR Experiments.
as §1, with “Media” for “Medium”, “USA).” for “USA) and were dissolved in methanol.”, “Australia).” for “Australia) and was dissolved in ethanol.”, “(Sigma). S1P and dihydro-S1P were used at […].” for “(Sigma).”, “USA) and were used at 20 ng/ml.” for “USA). RT-PCR Experiments.”
For direct observation, hES-3 cells were coated into 12-well plates (3 colonies per well), with or without mouse embryonic feeders (MEFs). The day following the plating, cells were incubated with the different agents in serum free medium containing insulin, transferring and selenium. Media was changed the 2nd day and then every 2 days.

SPK in MEF = test: Sphingosine kinase activity in MEF after incubation with PDGF; assay type: cell-based, mouse; conditions: PDGF 20 ng/ml
[4] = tested on: SPK activity in hES cells; test: Sphingosine kinase activity in hES cells after incubation with PDGF; assay type: cell-based, human; conditions: PDGF 20 ng/ml
Protocol: hES-3 cells plated without MEF for 24 hr and depleted of serum for a further 18 hr were incubated in the presence of PDGF (20 ng/ml) for various time periods and were harvested and lysed by sonication (2 W for 30 s at 4° C.) in lysis buffer containing 50 mM Tris/HCl (pH 7.4), 10% glycerol, 0.05% Triton X-100, 150 mM NaCl, 1 mM dithiothreitol, 2 mM Na3VO4, 10 mM NaF, 1 mM EDTA and protease inhibitors (Complete™, Roche, Mannheim, Germany). SPK activity was determined using D-erythro-sphingosine and […] as substrates, as previously described^19. Protein concentrations in cell homogenates were determined with Coomassie Brilliant Blue reagent (Bio-Rad, Regent Park, NSW, Australia) using bovine serum albumin as standard.

[5] = Example 1, 4 days, no MEF, no serum, S1P 10 μM
[6] = Example 1, 4 days, no MEF, no serum
[7] = Example 4, on MEFs, serum-depleted, S1P 10 μM

Compound: CCCCCCCCCCCCCCC[C@@H](O)[C@@H](N)COP(=O)(O)O [dihydro-S1P, dihydrosphingosine-1-phosphate]
- GCTM2 expression (hES cells [1]; Example 2, 2 weeks, dihydro-S1P, PDGF 20 ng/ml): 223.0±27.0 % of control

Compound: N#CC(=C(/N)Sc1ccccc1N)/C(C#N)=C(\N)Sc1ccccc1N [U0126]
- effect of inhibitor on the effect of PDGF and S1P on GCTM2 expression (hES cells [1]): totally inhibited
- effect of MEK inhibitor on agonist-stimulated phosphorylation of ERKs (ERK1/2 (Erk1 and Erk2); U0126 30 μM, 1 hr pre-treatment): totally inhibited

Compound: CCCCCCCCCCCCC/C=C/[C@@H](O)[C@@H](N)COP(=O)(O)O [S1P, sphingosine-1-phosphate]
- percentage of cells GCTM2+ (hES cells [2]; [5]): 47.9±3.8%
- proliferating rate of hES cells (PCNA) vs control (hES cells [2]; [6]): no statistically significant difference
- proliferating rate of hES cells (PCNA) vs control (hES cells [2]; Example 4, 4 days without serum, S1P 10 μM): no marked difference
- cells GCTM-2 positive (hES cells [2]; Example 4, 4 days without serum, S1P 10 μM (control 16%)): 68%
- more GCMT2+ than the control cells (hES cells [1]; PDGF 20 ng/ml): 16.6±4.1%
- more GCMT2+ than the controls (hES cells [1]; Example 2): 18.0±17.0%
- concentration dependence of ERKs stimulation (ERK1/2 (Erk1 and Erk2); 5 min, various concentrations of S1P): in a concentration dependant manner
- phosphorylation of ERKs in hES cells (ERK1/2 (Erk1 and Erk2); S1P 10 μM): stimulated the phosphorylation of ERKs
- duration of ERKs stimulation (ERK1/2 (Erk1 and Erk2); S1P 10 μM): at least 60 min
- colony morphology / spontaneous differentiation vs control (hES cells [3]; 8 days, S1P 10 μM): the colonies appeared flatter and less differentiated
- colony size, morphology / spontaneous differentiation vs controls (hES cells [3]; S1P 10 μM): the colonies appeared flatter and less differentiated
- colony morphology / differentiation vs control condition (hES cells [3]; Example 4, on MEFs, serum-depleted, 8 days, S1P 10 μM): the colonies were more compact and less differentiated
- colony growth / differentiation vs control (hES cells [3]; [7]): more obvious after 12 days of treatment
- effect on cell differentiation, hES cells grown without MEFs (hES cells [3]; Example 4): inhibitory effect

Compound: lysophosphatidic acid [LPA]
- phosphorylation of ERKs in hES cells (ERK1/2 (Erk1 and Erk2); S1P 10 μM): stimulated the phosphorylation of ERKs
- colony morphology / spontaneous differentiation vs control (hES cells [3]; 8 days, S1P 10 μM): did not have an obvious effect on growth of the colonies
- colony size, morphology / spontaneous differentiation vs controls (hES cells [3]; S1P 10 μM): no obvious effect on size or morphology of hES cell colonies
- colony growth / differentiation vs control (hES cells [3]; [7]): did not seem to affect the growth of the colonies
- effect on cell differentiation, hES cells grown without MEFs (hES cells [3]; Example 4): lack of effect

Compound: PDGF-AA: Human platelet-derived growth factor isoform AA; only binds to PDGFR-a
- GCTM2 levels, PDGF isoform added with S1P (hES cells [1]): 120.5±4.5 % of control
- GCTM2 expression, PDGF isoform with S1P (hES cells [1]; Example 2, 2 weeks, isoform 20 ng/ml together with S1P): 220.3±49.0 % of control

Compound: PDGF: Human platelet-derived growth factor, isoform AB, from PreproTech; ligand of class III tyrosine kinase receptor
- percentage of cells GCTM2+ (hES cells [2]; [5]): 53.7±13.2%
- proliferating rate of hES cells (PCNA) vs control (hES cells [2]; [6]): no statistically significant difference
- activation of SPK in MEF (SPK in MEF): did not induce a significant statistical activation of SPK
- duration of enhanced SPK activity [4]: at least 60 min
- SPK activity relative to basal values ([4]; after 30 min of incubation): 1.6 fold
- GCTM2 levels, PDGF isoform added with S1P (hES cells [1]): 125.7±9.7 % of control
- more GCMT2+ than the control cells (hES cells [1]; PDGF 20 ng/ml): 16.6±7.0%
- more GCMT2+ than the controls (hES cells [1]; Example 2): 50.3±18.4%
- phosphorylation of ERKs in hES cells (ERK1/2 (Erk1 and Erk2); S1P 10 μM): stimulated the phosphorylation of ERKs
- colony morphology / spontaneous differentiation vs control (hES cells [3]; 8 days, S1P 10 μM): the colonies appeared flatter and less differentiated
- colony size, morphology / spontaneous differentiation vs controls (hES cells [3]; S1P 10 μM): the colonies appeared flatter and less differentiated

Compound: CCCCCCCCCCCCC/C=C/[C@@H](O)[C@H](CO)N(C)C [DMS, dimethylsphingosine]
- effect of inhibitor on the effect of PDGF and S1P on GCTM2 expression (hES cells [1]): inhibited the effect of PDGF and S1P
